Speed of sound and mass density data for eight molecules are collected here from the NIST ThermoML archive (doi:10.1016/j.jct.2018.12.012).

For data set [1] the following is noted: 100 kPa, Liquid; for speed of sound: Frequency=3 MHz, Single path-length method; for mass density: Vibrating tube method.
The nature of data set [2]: xn = mol fraction of the nth substance listed. The following applies: 100 kPa, Liquid, x2 = 0; for speed of sound: Frequency=3 MHz, Single path-length method; for mass density: Vibrating tube method.

Molecules are shown by their SMILES. ± gives the expanded uncertainty stated by the source.

What is called speed of sound is the propagation velocity of pressure waves in the medium. The mass density is mass per unit of volume. Regarding `CCC(C)O` (centres undefined) [butan-2-ol], the speed of sound in data set [1] (293.15 K) turned out to be 1229.9 ± 6.2 m/s; in data set [1] (298.15 K), 1212.1 ± 6.2 m/s; in data set [1] (303.15 K), 1194.1 ± 6.2 m/s; in data set [1] (308.15 K), 1176 ± 6.2 m/s. The mass density in data set [1] (293.15 K) was 806.952 ± 1.4 kg/m3; in data set [1] (298.15 K) it was 802.847 ± 1.4 kg/m3; in data set [1] (303.15 K) it was 798.651 ± 1.4 kg/m3; in data set [1] (308.15 K) it was 794.363 ± 1.4 kg/m3.

For the molecule `CCC(C)O` (centres undefined) [butan-2-ol] + CC(C)NC(C)C, the speed of sound in data set [2] (293.15 K) turned out to be 1229.9 ± 6.2 m/s; in data set [2] (298.15 K), 1212.1 ± 6.2 m/s; in data set [2] (303.15 K), 1194.1 ± 6.2 m/s; in data set [2] (308.15 K), 1176 ± 6.2 m/s. In addition, the mass density was determined as 806.952 ± 1.4 kg/m3 in data set [2] (293.15 K), 802.847 ± 1.4 kg/m3 in data set [2] (298.15 K), 798.651 ± 1.4 kg/m3 in data set [2] (303.15 K) and 794.363 ± 1.4 kg/m3 in data set [2] (308.15 K).

For `CCC(C)O` (centres undefined) [butan-2-ol] + CCCCNCCCC, the speed of sound in data set [2] (293.15 K) came out at 1229.9 ± 6.2 m/s; in data set [2] (298.15 K), 1212.1 ± 6.2 m/s; in data set [2] (303.15 K), 1194.1 ± 6.2 m/s; in data set [2] (308.15 K), 1176 ± 6.2 m/s. The mass density is reported as 806.952 ± 1.4 kg/m3 in data set [2] (293.15 K), 802.847 ± 1.4 kg/m3 in data set [2] (298.15 K), 798.651 ± 1.4 kg/m3 in data set [2] (303.15 K) and 794.363 ± 1.4 kg/m3 in data set [2] (308.15 K).

For the molecule `CCCCNCCCC` [dibutylamine], the speed of sound in data set [1] (293.15 K) came out at 1260.1 ± 6.3 m/s; in data set [1] (298.15 K), 1240.1 ± 6.3 m/s; in data set [1] (303.15 K) it was 1220.3 ± 6.3 m/s; in data set [1] (308.15 K), 1200.6 ± 6.3 m/s. Further, the mass density amounted to 759.579 ± 1.4 kg/m3 in data set [1] (293.15 K), 755.48 ± 1.4 kg/m3 in data set [1] (298.15 K), 751.374 ± 1.4 kg/m3 in data set [1] (303.15 K) and 747.268 ± 1.4 kg/m3 in data set [1] (308.15 K).

With `CC(C)NC(C)C` [diisopropylamine], the speed of sound in data set [1] (293.15 K) is recorded as 1116.4 ± 6.3 m/s; in data set [1] (298.15 K), 1093.8 ± 6.3 m/s; in data set [1] (303.15 K), 1071.1 ± 6.3 m/s; in data set [1] (308.15 K), 1043.5 ± 6.3 m/s. The mass density in data set [1] (293.15 K) stood at 717.305 ± 1.4 kg/m3; in data set [1] (298.15 K), 712.441 ± 1.4 kg/m3; in data set [1] (303.15 K), 707.55 ± 1.4 kg/m3; in data set [1] (308.15 K) it was 702.661 ± 1.4 kg/m3.

Consider `CCCC(C)O` (centres undefined) [pentan-2-ol], for which the speed of sound is 1250.3 ± 6.5 m/s in data set [1] (293.15 K), 1232.4 ± 6.5 m/s in data set [1] (298.15 K), 1214.1 ± 6.5 m/s in data set [1] (303.15 K) and 1195.7 ± 6.5 m/s in data set [1] (308.15 K). The mass density in data set [1] (293.15 K) turned out to be 809.399 ± 1.5 kg/m3; in data set [1] (298.15 K) it was 805.37 ± 1.5 kg/m3; in data set [1] (303.15 K), 801.27 ± 1.5 kg/m3; in data set [1] (308.15 K) it was 797.08 ± 1.5 kg/m3.

For the molecule `CCCC(C)O` (centres undefined) [pentan-2-ol] + CC(C)NC(C)C, the speed of sound in data set [2] (293.15 K) turned out to be 1250.3 ± 6.5 m/s; in data set [2] (298.15 K), 1232.4 ± 6.5 m/s; in data set [2] (303.15 K) it was 1214.1 ± 6.5 m/s; in data set [2] (308.15 K), 1195.7 ± 6.5 m/s. The mass density was determined as 809.399 ± 1.5 kg/m3 in data set [2] (293.15 K), 805.37 ± 1.5 kg/m3 in data set [2] (298.15 K), 801.27 ± 1.5 kg/m3 in data set [2] (303.15 K) and 797.08 ± 1.5 kg/m3 in data set [2] (308.15 K).

As to `CCCC(C)O` (centres undefined) [pentan-2-ol] + CCCCNCCCC, the speed of sound in data set [2] (293.15 K) amounted to 1250.3 ± 6.5 m/s; in data set [2] (298.15 K), 1232.4 ± 6.5 m/s; in data set [2] (303.15 K), 1214.1 ± 6.5 m/s; in data set [2] (308.15 K), 1195.7 ± 6.5 m/s. Further, the mass density is reported as 809.399 ± 1.5 kg/m3 in data set [2] (293.15 K), 805.37 ± 1.5 kg/m3 in data set [2] (298.15 K), 801.27 ± 1.5 kg/m3 in data set [2] (303.15 K) and 797.08 ± 1.5 kg/m3 in data set [2] (308.15 K).
